Series [1] relates to SU-DHL-1. The experiment in a line: Anticancer activity against human SU-DHL-1 cells assessed as cell growth inhibition. It is filed as functional, cell-based.
Series [2] relates to MCF7. As to the kind of experiment: Anticancer activity against human MCF7 cells xenografted in mouse assessed as cell growth inhibition […] relative to control. It is filed as functional.
In series [3] the test system is MCF7. As to the kind of experiment: Anticancer activity against human MCF7 cells assessed as cell growth inhibition CCK8 assay. It is filed as functional, cell-based.
In series [4] the target is von Hippel-Lindau disease tumor suppressor/Bromodomain-containing protein 4 (Homo sapiens, UniProt O60885+P40337). As to the kind of experiment: PROTAC activity at VHL/BRD4 in human MCF7 cells assessed as degradation of BRD4 incubated by Western blot assay. It is filed as cell-based.
A short description of series [5]: Cytotoxicity against human HFF-1 cells assessed as cell growth inhibition. It is filed as toxicity, cell-based.

Chain of von Hippel-Lindau disease tumor suppressor/Bromodomain-containing protein 4 (P40337 whole entry, looked up, other chains not shown): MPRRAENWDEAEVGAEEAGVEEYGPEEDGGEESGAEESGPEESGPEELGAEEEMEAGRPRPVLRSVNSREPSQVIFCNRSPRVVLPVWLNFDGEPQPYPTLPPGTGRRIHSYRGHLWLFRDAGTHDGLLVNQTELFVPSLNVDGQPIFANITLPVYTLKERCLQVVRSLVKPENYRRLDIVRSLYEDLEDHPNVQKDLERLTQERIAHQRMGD

As for `Cc1cc(Nc2ncc(Cl)c(Nc3ccccc3S(=O)(=O)C(C)C)n2)c(OC(C)C)cc1C1CCN(C(=O)CCCC(=O)N[C@H](C(=O)N2C[C@H](OC(=O)CCCCn3cc(CNC(=O)CC[C@H](NC(=O)c4ccc(NCc5cnc6nc(N)[nH]c(=O)c6n5)cc4)C(=O)O)nn3)C[C@H]2C(=O)N[C@@H](C)c2ccc(-c3scnc3C)cc2)C(C)(C)C)CC1`, the half-inhibitory concentration (IC50) in series [1] worked out at 200 nM. Regarding `CNC(=O)CCC(=O)OCCSSCCOC(=O)O[C@@H]1C[C@@H](C(=O)N[C@@H](C)c2ccc(-c3scnc3C)cc2)N(C(=O)[C@H](NC(=O)COCCOCCOCCNC(=O)C[C@@H]2N=C(c3ccc(Cl)cc3)c3c(sc(C)c3C)-n3c(C)nnc32)C(C)(C)C)C1`, the TGI in series [2] was 77.5%. In series [3], the IC50 came to 56.9 nM. Moreover, the DC50 in series [4] turned out to be 22 nM.

Take `Cc1ncsc1-c1ccc([C@H](C)NC(=O)[C@@H]2C[C@@H](OC(=O)CCCCn3cc(CNC(=O)CC[C@H](NC(=O)c4ccc(NCc5cnc6nc(N)[nH]c(=O)c6n5)cc4)C(=O)O)nn3)CN2C(=O)[C@@H](NC(=O)COCCCOCCNC(=O)C[C@@H]2N=C(c3ccc(Cl)cc3)c3c(sc(C)c3C)-n3c(C)nnc32)C(C)(C)C)cc1`: the IC50 in series [5] is above 10000 nM.

For the origin of these results see ChEMBL document CHEMBL5331112, “Recent Advances in Pro-PROTAC Development to Address On-Target Off-Tumor Toxicity” (J Med Chem, 2023).
